“Also recorded” adds a separate entry of the source.
Tests used:
[1] = Remote loading efficiency of small molecules into liposomes (PD-10 size exclusion, HPLC); format: physicochemical
Method: A solution of the small molecule (modified TLR agonist) was lyophilized in a vial equipped with a magnetic stir bar over night to form a fluffy white powder. This powder was added either formulation F1 or F2 to the wanted drug/lipid ratio. The resulting mixture was stirred at 55° C. or 41° C. for formulation F1 and F2 respectively for 3h, then allowed to cool to rt before the solutions were refrigerated and stored at 4° C.
Remote loading efficiency was determined at 1 h and 3 h by taking out 100 μL of the mixture and applying this and 900 μL buffer (25 mM HEPES, 10 vol % sucrose buffer, pH 7.4) to a PD-10 column size exclusion column. Following, 10×1 mL fractions were collected, and the small molecule compound concentrations in the loading mixture and in the liposome containing fractions were determined on analytical HPLC. Loading efficiency was calculated as percentage of molecules found in liposome containing fractions out of the applied amount. The general procedure for the small molecule remote loading is visualized in FIG. 3. The general concept of remote loading imidazoquinolines in liposomes that are dialyzed against HEPES is visualized in FIG. 4.

whole human blood [2] = assay: IL-12p40 cytokine expression in stimulated whole human blood (ELISA); format: cell-based
Method: (§1) This example describes the general procedure used to assess the level of cytokine IL-6 and IL-12p40 expressions upon stimuli of whole human blood with small molecules or small molecules in liposomal formulations F1 and F2. 10 mM DMSO solutions of the small molecules were diluted in RPMI media (RPMI-1640, Sigma Aldrich) with 1% penicillin/streptomycin (p/s). […], of each dilution was transferred to Nunc™ 96-Well Polystyrene Conical Bottom MicroWell™ Plates in duplicates. Blood was drawn from two human donors, diluted in RPMI with 1% p/s and added to each well to reach final concentrations of 10 μM, 1 μM, and 0.1 μM of the small molecules. The plates were incubated at 37° C. in a cell incubator for 24h. The plates were then spun down in a plate centrifuge with 3200 revolutions per minute (rpm) for 10 min before 50 uL of the supernatant was transferred to new 96-well plates. The supernatant samples were subsequently stored at −80° C. until the day of cytokine measurements.
(§2) The level of cytokine expression was measured using either an IL-6 ELISA Kit (RnDSystems, cat #DY206) for IL-6, or an IL-12p40 ELISA Kit (RnDSystems, cat #DY1240) according to the manufacturer's protocols. This general procedure was used to generate the examples 24-33.

[3] = Cryo-TEM of remote loaded liposomes (intraliposomal precipitation); format: physicochemical
Method: CryoTEM samples of 3 μL of liposome solution was placed on a lacy carbon 300 mesh copper TEM grid, blotted and plunge frozen in liquid ethane using a FEI Vitrobot Mark IV. Samples were imaged using a FEI Tecnai G2 20 TWIN transmission electron microscope operated at 200 keV in low dose mode with a FEI High-Sensitive (HS) 4 k×4 k Eagle camera.

whole human blood [4] = assay: IL-6 cytokine expression in stimulated whole human blood (ELISA); format: cell-based
Method: as §1, §2

[5] = free small molecule, 10, 1, 0.1 μM, 24 h, two donors

CCOCc1nc2c(N)nc3ccccc3c2n1CCN [MK079-D, 1-(2-aminoethyl)-2-(ethoxymethyl)-1H-imidazo[4,5-c]quinolin-4-amine]
Remote loading efficiency 1 h (%) ([1]; formulation F1, HEPES, drug/lipid ratio 0.06, 1 h): 87% | Remote loading efficiency 3 h (%) ([1]; formulation F1, HEPES, drug/lipid ratio 0.06, 3 h): 98% | Remote loading efficiency 1 h (%) ([1]; formulation F1, HEPES, drug/lipid ratio 0.10, 1 h): 93% | Remote loading efficiency 3 h (%) ([1]; formulation F1, HEPES, drug/lipid ratio 0.10, 3 h): 95% | Remote loading efficiency 1 h (%) ([1]; formulation F1, HEPES, drug/lipid ratio 0.25, 1 h): 90% | Remote loading efficiency 3 h (%) ([1]; formulation F1, HEPES, drug/lipid ratio 0.25, 3 h): 98% | Remote loading efficiency 1 h (%) ([1]; formulation F1, HEPES, drug/lipid ratio 0.50, 1 h): 77% | Remote loading efficiency 3 h (%) ([1]; formulation F1, HEPES, drug/lipid ratio 0.50, 3 h): 70% | Remote loading efficiency 1 h (%) ([1]; formulation F1, TAPS pH 8.5, drug/lipid ratio 0.06, 1 h): 80% | Remote loading efficiency 3 h (%) ([1]; formulation F1, TAPS pH 8.5, drug/lipid ratio 0.06, 3 h): 77% | Remote loading efficiency 1 h (%) ([1]; formulation F2, HEPES, drug/lipid ratio 0.06, 1 h): 81% | Remote loading efficiency 3 h (%) ([1]; formulation F2, HEPES, drug/lipid ratio 0.06, 3 h): 81% | Remote loading efficiency 1 h (%) ([1]; formulation F2, HEPES, drug/lipid ratio 0.10, 1 h): 82% | Remote loading efficiency 3 h (%) ([1]; formulation F2, HEPES, drug/lipid ratio 0.10, 3 h): 88% | Remote loading efficiency 1 h (%) ([1]; formulation F2, HEPES, drug/lipid ratio 0.25, 1 h): 90% | Remote loading efficiency 3 h (%) ([1]; formulation F2, HEPES, drug/lipid ratio 0.25, 3 h): 94% | Remote loading efficiency 1 h (%) ([1]; formulation F2, HEPES, drug/lipid ratio 0.50, 1 h): 73% | Remote loading efficiency 3 h (%) ([1]; formulation F2, HEPES, drug/lipid ratio 0.50, 3 h): 57% | Remote loading efficiency 1 h (%) ([1]; formulation F2, TAPS pH 8.5, drug/lipid ratio 0.06, 1 h): 80% | Remote loading efficiency 3 h (%) ([1]; formulation F2, TAPS pH 8.5, drug/lipid ratio 0.06, 3 h): 70% | Expression of IL-12p40 upon stimulation of whole human blood (whole human blood [2]; [5]): expression of IL-12p40 at 10 μM in both donors | Expression of IL-12p40 upon stimulation of whole human blood (whole human blood [2]; remote loaded in formulation F1, HEPES or TAPS, drug/lipid ratio 0.06): did not lead to any expression of IL-12p40 | Expression of IL-12p40 upon stimulation of whole human blood (whole human blood [2]; remote loaded in formulation F2, HEPES or TAPS, drug/lipid ratio 0.06): Induction of IL-12p40 expression was observed; also recorded: larger expression of IL-12p40 when dialyzed against HEPES compared to TAPS | Precipitation in liposomes (Cryo-TEM) ([3]; formulation F1, HEPES, drug/lipid ratio 0.25): precipitation of the small molecule inside the aqueous core of the liposomes | Precipitation in liposomes (Cryo-TEM) ([3]; formulation F1, HEPES, drug/lipid ratio 0.50): precipitation of the small molecule in the aqueous core of the liposomes | Precipitation in liposomes (Cryo-TEM) ([3]; formulation F2, drug/lipid ratio 0.25): precipitation of the small molecule in the aqueous core of the liposomes | Precipitation in liposomes (Cryo-TEM) ([3]; formulation F2, drug/lipid ratio 0.50): precipitation of the small molecule in the aqueous core of the liposomes | Expression of IL-6 upon stimulation of whole human blood (whole human blood [4]; [5]): expression of IL-6 at 10 μM in both donors | Expression of IL-6 upon stimulation of whole human blood (whole human blood [4]; remote loaded in formulation F1, HEPES, drug/lipid ratio 0.06): an expression of IL-6 at 10 μM | Expression of IL-6 upon stimulation of whole human blood (whole human blood [4]; remote loaded in formulation F1, TAPS, drug/lipid ratio 0.06): no expression of IL-6 at 10 μM | Expression of IL-6 upon stimulation of whole human blood (whole human blood [4]; remote loaded in formulation F2, HEPES, drug/lipid ratio 0.06): able to induce expression of IL-6 | Expression of IL-6 upon stimulation of whole human blood (whole human blood [4]; remote loaded in formulation F2, TAPS, drug/lipid ratio 0.06): resulted in an expression of IL-6
